We go through eight compounds from ChEMBL document CHEMBL1201862, “PubChem BioAssay data set” (2004).

Active and inactive are the calls of the source.

Assay [1] deals with T1, Tyrosine-protein phosphatase non-receptor type 7 (Homo sapiens, UniProt P35236).
T1 sequence (P35236 whole entry): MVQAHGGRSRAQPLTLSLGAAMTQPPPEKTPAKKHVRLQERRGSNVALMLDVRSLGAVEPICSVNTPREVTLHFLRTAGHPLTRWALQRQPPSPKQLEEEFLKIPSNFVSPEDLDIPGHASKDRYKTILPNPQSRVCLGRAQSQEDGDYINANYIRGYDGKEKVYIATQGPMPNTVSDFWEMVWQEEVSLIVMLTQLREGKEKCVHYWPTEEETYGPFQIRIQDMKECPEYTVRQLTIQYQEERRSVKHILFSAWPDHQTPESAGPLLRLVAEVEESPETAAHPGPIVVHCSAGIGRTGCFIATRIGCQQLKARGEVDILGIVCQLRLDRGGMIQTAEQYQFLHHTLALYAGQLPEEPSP
In words: HePTP tyrosine phosphatase activity blockers – biochemical, absorbance, leukemia target, primary screen (AID 521). The format is functional.

Assay [2] can be described thus: Luminescence-based cell-based high throughput dose response assay to identify activators of the DAF-12 from the parasite S. stercoralis (ssDAF-12). It is filed as functional.
Assay [3] has as its target T2, Oxysterols receptor LXR-beta (Homo sapiens, UniProt P55055).
T2 sequence (P55055 whole entry): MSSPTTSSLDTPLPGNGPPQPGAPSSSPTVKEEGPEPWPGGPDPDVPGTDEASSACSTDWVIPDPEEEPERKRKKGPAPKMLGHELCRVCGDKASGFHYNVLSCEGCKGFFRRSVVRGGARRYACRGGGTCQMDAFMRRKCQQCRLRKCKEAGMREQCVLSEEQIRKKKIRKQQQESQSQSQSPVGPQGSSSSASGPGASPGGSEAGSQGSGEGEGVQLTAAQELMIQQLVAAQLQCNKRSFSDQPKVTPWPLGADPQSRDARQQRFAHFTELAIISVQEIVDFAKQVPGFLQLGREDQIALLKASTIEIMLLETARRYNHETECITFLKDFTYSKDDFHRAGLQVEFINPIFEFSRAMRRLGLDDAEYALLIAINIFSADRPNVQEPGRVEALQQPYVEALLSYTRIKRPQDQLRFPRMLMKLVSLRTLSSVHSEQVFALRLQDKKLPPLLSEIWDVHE
In words: LXR agonists, Gal4 luciferase reporter, dose response, counter-screen for ssDAF-12 agonist project, cell-based, luminescence, HEK293, S. stercoralis campaign (AID 720737). The format is functional. As to conditions: read-out: IC50 (the source's name).

Another assay has as its target T3, Bcl-2-like protein 10 (Homo sapiens, UniProt Q9HD36).
T3 sequence (Q9HD36 whole entry): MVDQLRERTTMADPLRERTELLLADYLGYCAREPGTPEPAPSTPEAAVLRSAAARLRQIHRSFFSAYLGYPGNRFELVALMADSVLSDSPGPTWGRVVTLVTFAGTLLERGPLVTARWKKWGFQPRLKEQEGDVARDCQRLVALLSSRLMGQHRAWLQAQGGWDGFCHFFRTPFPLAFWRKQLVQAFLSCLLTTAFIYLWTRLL
The experiment in a line: Bcl-B/TR3 peptide binding disruption – biochemical, fluorescence polarization, FITC-TR3 peptide, selectivity assay for Bfl-1 inhibitor project, primary screen (AID 748).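 Also: fluorescence polarization from a fluorescein-labelled TR3 peptide binding purified Bcl-B.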

The target of a further assay is Estrogen receptor beta (Homo sapiens, UniProt Q92731). In words: blockers of SRC-3 recruitment to ERβ – biochemical, ELISA, streptavidin-HRP readout, orthogonal assay, confirmation (AID 1060).
The target in assay [4] is Voltage-gated inwardly rectifying potassium channel KCNH2 (Homo sapiens, UniProt Q12809). The experiment in a line: concentration-dependent hERG rescue from blockers – cell-based, thallium flux, dose response (AID 2121). It is filed as ADME.
Assay [5] can be described thus: viability loss of HPDE-C7K cells – cell-based, fluorescence, HTS, primary screen (AID 431). The settings on record: Homo sapiens. It is filed as functional.
The nature of assay [6]: HPDE-C7 pancreatic duct cell viability loss – fluorescence, HTS (AID 430). It is filed as functional, cell-based. As to conditions: Homo sapiens.
The nature of assay [7]: A Cell Based Secondary Assay To Explore Cytotoxicity of Compounds that Sensitize Mycobacterium Tuberculosis to Beta-Lactam Antibiotics. The format is functional.
Assay [8] is described as follows: blockers of HIV-1 envelope-mediated cell-cell fusion – cherry-pick, dose response (AID 652057). It is filed as functional, cell-based.
A short description of assay [9]: off-target signal loss in HeLa-CEM21 co-culture – HeLa F-luc CTL cells, cherry-picked, counter-screen for HIV-1 Env fusion inhibitor project, dose response (AID 652040).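 Also: potency for signal decrease marking cytotoxic or nonspecific inhibition.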 The format is functional, cell-based.
Assay [10] can be described thus: alpha-synuclein stem-loop translation blockers – luminescence, H4 neuroglioblastoma cells, dose confirmation, confirmation (AID 2454).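 Also: H4 neuroglioblastoma cells carrying an alpha-synuclein 5'UTR luciferase reporter; potency for inhibition of the luciferase signal.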 It is filed as functional, cell-based.
Assay [11] concerns the target Heat shock protein HSP 90-alpha (Homo sapiens, UniProt P07900). In words: Luminescence-based dose response biochemical high throughput screening assay for inhibitors of the Heat Shock Protein 90 (HSP90). [Related pubchem assays: 1831 (Summary AID.), 1846 (Confirmation screen.), 1789 (Primary screen.)].
Another assay in a line: cells. The format is functional, cell-based.
The nature of assay [12]: alpha-synuclein stem-loop luciferase translation blockers – H4 neuroglioma cells, luminescence, confirmation (AID 1988). It is filed as functional, cell-based.
Assay [13] is described as follows: luciferase reporter signal reduction – luminescence, H4-C neuroglioblastoma cells, dose response (AID 2458).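 Also: H4 neuroglioblastoma cells stably carrying a luciferase reporter gene fusion.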 The format is functional, cell-based.
The next assay relates to Jurkat. The experiment in a line: blockers of NF-kB activation in T cells – Jurkat, luciferase reporter, luminescence, B- and T-cell, dose response (AID 489004).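 Also: NF-kB luciferase reporter Jurkat cells stimulated with PMA plus ionomycin.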 It is filed as functional, cell-based. As to conditions: Homo sapiens.
Assay [14] can be described thus: blockers of bursicon-stimulated LGR2 cAMP reporter – cell-based, HEK293, CRE-luciferase reporter, cherry pick, set 2, dose response (AID 743343).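 Also: transfected cells were stimulated with diluted bursicon conditioned medium after compound addition.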 The format is functional.
Assay [15] can be described thus: HEK-293T viability loss, compound-treated – cell-based, uHTS hits, cytotoxicity control for B/T-cell NF-kB inhibitor project, dose response (AID 489019).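 Also: IC50 reflects cytotoxicity as loss of cell viability.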 The format is functional.
Assay [16] in a line: blockers of HIV-1 ZM109 envelope-driven cell-cell fusion – HeLa effector, CEM target cells, luciferase, cherry-pick, dose response (AID 652058).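 Also: luciferase signal from HIV-1 Env mediated cell-cell fusion of effector and target cells.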 It is filed as functional, cell-based.
Assay [17] in a line: HIV-1 AD8 envelope cell-cell fusion blockers – cherry-pick, dose response (AID 652062).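 Also: luciferase signal from cell-cell fusion driven by HIV-1 clade B AD8 Env; potency is for inhibitors of fusion seen as a drop in luminescence.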 The format is functional, cell-based.
Assay [18] in a line: blockade of melanocortin 4 receptor signaling – cell-based, plate reader, cherry pick, counter-screen for LGR2 antagonist project, dose response (AID 743444).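 Also: transfected HEK 293 cells stimulated with alpha-MSH peptide; potency of inhibitors of the alpha-MSH evoked signal.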 The format is functional.
Assay [19] can be described thus: IC50 of insulin release inhibition, rat insulinoma INS-1E line, 5 mM glucose, cell-based (AID 1117331). The format is functional.
Assay [20] can be described thus: glucagon-like peptide-1 release potency in STC-1, concentration-response, half-maximal inhibitory concentration in the STC-1 line (AID 1117345). The format is functional, cell-based.
A short description of assay [21]: Potency on glucagon-like peptide 1 release, dose-response in NCI-H716 cell line, half maximal inhibitory concentration (AID 1117344). It is filed as functional, cell-based.
The target in another assay is Paired box protein Pax-8 (Homo sapiens, UniProt Q06710). The experiment in a line: PAX8 transcriptional activity inhibition in RMG-I – RMG-I cells, luciferase, cherry-pick, dose response (AID 687027).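 Also: luciferase reporter driven by Pax8 target thyroperoxidase promoter measured by SteadyGlo luminescence.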 It is filed as functional, cell-based.
Assay [22] can be described thus: COV434 cell viability loss – plate reader, dry powder, SA7, cytotoxicity control for PAX8 inhibitor project, dose response (AID 743145). It is filed as functional, cell-based.
Assay [23] can be described thus: COV362 cell viability loss – plate reader, dry powder, SA12, cytotoxicity control for PAX8 inhibitor project, dose response (AID 743144). The format is functional, cell-based.
Assay [24] is described as follows: OVCAR8 cell viability loss – plate reader, dry powder samples, PAX8 project, dose response (AID 743197). It is filed as functional, cell-based. As to conditions: OVCAR-8.
Assay [25] in a line: OVCAR4 cell viability loss – plate reader, dry powder, SA11, cytotoxicity control for PAX8 inhibitor project, dose response (AID 743150). It is filed as functional, cell-based. The settings on record: OVCAR-4.
A short description of assay [26]: inhibitors acting on PAX2 in cells – cell-based, plate reader, dry powder samples, selectivity assay for PAX8 inhibitor project, dose response (AID 743048).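 Also: HEK293 cells carrying a WT1 promoter luciferase reporter driven by expressed Pax2; potency is for inhibition of Pax2 driven reporter signal.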 It is filed as functional.
A short description of assay [27]: PAX8-dependent cell viability loss – plate reader, dry powder, dose response (AID 743049). It is filed as functional, cell-based.
A short description of assay [28]: PAX5 cellular inhibition readout – cell-based, plate reader, dry powder samples, selectivity assay for PAX8 inhibitor project, dose response (AID 743047).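 Also: HEK293 cells carrying a Pax5 driven CD19 promoter luciferase reporter; potency of inhibitors that lower reporter luminescence.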 The format is functional.
Assay [29] in a line: A2780 cell killing – plate reader, dry powder samples, cytotoxicity control, dose response (AID 743046). The format is functional, cell-based.

Chain of Voltage-gated inwardly rectifying potassium channel KCNH2 (Q12809 whole entry): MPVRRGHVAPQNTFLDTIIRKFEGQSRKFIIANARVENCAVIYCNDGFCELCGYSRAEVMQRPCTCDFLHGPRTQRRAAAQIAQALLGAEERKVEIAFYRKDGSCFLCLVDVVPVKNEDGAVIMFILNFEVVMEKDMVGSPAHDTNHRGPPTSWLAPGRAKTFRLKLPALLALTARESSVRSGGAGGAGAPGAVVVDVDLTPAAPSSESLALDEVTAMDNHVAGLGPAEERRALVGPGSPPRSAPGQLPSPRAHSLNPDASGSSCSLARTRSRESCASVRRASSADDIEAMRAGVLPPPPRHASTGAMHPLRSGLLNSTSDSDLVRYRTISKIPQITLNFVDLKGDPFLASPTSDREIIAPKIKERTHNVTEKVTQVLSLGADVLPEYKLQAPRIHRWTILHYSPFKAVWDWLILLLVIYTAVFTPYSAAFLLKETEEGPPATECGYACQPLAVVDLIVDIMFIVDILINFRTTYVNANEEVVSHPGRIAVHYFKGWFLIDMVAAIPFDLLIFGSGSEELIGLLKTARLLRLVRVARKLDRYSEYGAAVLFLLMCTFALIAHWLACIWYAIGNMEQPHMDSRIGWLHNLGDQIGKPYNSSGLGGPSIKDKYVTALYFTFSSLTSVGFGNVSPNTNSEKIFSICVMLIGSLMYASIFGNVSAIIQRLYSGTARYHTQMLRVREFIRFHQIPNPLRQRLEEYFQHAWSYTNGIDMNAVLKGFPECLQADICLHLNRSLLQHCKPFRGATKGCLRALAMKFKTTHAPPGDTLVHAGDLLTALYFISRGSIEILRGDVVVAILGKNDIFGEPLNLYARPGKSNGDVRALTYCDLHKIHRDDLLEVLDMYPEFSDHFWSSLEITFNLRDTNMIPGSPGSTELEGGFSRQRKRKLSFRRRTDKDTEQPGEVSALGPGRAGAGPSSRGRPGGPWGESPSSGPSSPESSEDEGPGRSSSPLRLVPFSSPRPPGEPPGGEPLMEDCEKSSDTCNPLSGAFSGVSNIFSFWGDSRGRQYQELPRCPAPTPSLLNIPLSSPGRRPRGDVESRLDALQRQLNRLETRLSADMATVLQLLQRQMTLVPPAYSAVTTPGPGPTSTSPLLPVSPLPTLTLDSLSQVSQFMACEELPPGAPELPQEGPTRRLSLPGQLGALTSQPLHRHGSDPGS
Chain of Paired box protein Pax-8 (Q06710 whole entry): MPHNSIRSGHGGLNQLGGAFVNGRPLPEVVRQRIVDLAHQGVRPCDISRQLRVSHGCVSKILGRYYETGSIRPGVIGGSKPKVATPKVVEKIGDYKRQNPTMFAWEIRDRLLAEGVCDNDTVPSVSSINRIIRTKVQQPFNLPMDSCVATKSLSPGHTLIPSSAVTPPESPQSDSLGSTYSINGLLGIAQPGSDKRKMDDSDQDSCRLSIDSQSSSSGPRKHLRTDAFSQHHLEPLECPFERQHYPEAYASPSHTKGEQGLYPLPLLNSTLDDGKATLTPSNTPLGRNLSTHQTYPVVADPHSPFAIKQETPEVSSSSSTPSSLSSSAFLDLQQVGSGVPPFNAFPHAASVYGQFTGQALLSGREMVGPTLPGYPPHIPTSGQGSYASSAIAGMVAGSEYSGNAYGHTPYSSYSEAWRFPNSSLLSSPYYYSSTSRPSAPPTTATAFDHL
Chain of Estrogen receptor beta (Q92731 whole entry): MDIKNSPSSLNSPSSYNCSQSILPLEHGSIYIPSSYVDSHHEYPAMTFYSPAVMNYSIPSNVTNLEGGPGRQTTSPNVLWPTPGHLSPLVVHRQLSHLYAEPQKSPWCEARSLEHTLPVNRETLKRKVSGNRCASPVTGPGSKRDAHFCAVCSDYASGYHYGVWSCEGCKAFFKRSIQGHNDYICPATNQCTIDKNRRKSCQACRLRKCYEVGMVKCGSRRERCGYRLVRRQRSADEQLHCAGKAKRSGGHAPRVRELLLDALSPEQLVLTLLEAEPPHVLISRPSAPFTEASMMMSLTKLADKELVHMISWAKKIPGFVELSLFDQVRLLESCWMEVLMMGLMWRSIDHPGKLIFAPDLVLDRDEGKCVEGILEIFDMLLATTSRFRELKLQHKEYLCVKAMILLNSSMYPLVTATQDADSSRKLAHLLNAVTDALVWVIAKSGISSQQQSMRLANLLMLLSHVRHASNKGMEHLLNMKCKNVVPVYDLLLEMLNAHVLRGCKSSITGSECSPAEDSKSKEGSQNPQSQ

`CCn1c(COc2ccccc2)nnc1SCC(=O)NC1CCCCC1`: in assay [1], the IC50 is recorded as > 100 µM (not active).

In the case of `COc1cc(SC)ccc1C(=O)Nc1ccc2c(c1)CCC2`, the IC50 in assay [2] is > 67.5 µM (inactive). Further, the EC50 in assay [3] was > 67.5 µM (inactive).

As for `COc1ccc(NC(=O)c2noc3c2CCC3)cc1`, the IC50 on Bcl-2-like protein 10 was 12.6 µM (active); on Estrogen receptor beta, < 0.023 µM (not active).

With `CS(=O)(=O)c1sc(C(=O)NC(=S)Nc2ccc(OC(F)(F)F)cc2)c2c1C=CCC2`, in [4], the EC50 was 1.01 µM (active).

In the case of `CC(O)/C=C/c1ccc2ccccc2n1` (centres undefined), the EC50 was > 20 µM (not active) in assay [5] and 17.8 µM (active) in assay [6]. Further, the CC50 in assay [7] was 35.2 µM (active).

For the compound `Cc1ccc(C(=O)CN2C(=O)c3ccccc3S2(=O)=O)cc1`, the AC50 in assay [8] was 1.81 µM (active); in [9], 3.11 µM (active); in assay [14], 0.594 µM (active); in assay [16] it was 17.9 µM (active); in assay [17], 4.12 µM (active); in assay [18], 0.548 µM (active). For the same compound, the EC50 in [10] was 0.363 µM (active); in “cells” it was 0.315 µM (active); in assay [12], < 0.1 µM (active); in [13] it was 0.263 µM (active). In addition, the figures for the IC50 (in assay [11]; in the assay on Jurkat; in assay [15]) were 4.64 µM (active), 1.57 µM (active) and > 80 µM (inactive), respectively.

Regarding `CCCCCNC(=N)N/N=C/c1c[nH]c2ccc(OC)cc12` [TEGASEROD], the figures for the IC50 in [19], in assay [20] and in [21] were 16.8 µM (inactive), > 40 µM (inactive) and 10.9 µM (inactive), respectively.

Take `N#C[C@@H]1[C@H](c2ccc(C#CC3CCCC3)cc2)[C@H](CO)N1C(=O)Nc1ccc(F)cc1`: the AC50 on Paired box protein Pax-8 is 10.5 µM (active); in assay [22], 46.9 µM (active); in assay [23], 62.6 µM (active); in assay [24] it was > 70 µM (inactive); in assay [25], 18.8 µM (active); in [26], 9.84 µM (active). Besides, the AC50 was 19.8 µM (active) in [27], 9.89 µM (active) in [28] and 19.4 µM (active) in assay [29].
